Like-named read-outs stand apart in the source and are kept apart here.
Legend:
[1] = test system: U87; assay: tumor cell growth, U87; conditions: Homo sapiens, U-87 MG, read-out: IC50 (uM), U87 (CNS)
[2] = test system: MCF7; assay: tumor cell growth, MCF7; conditions: Homo sapiens, MCF7, read-out: IC50 (uM), MCF7 (Breast C)
[3] = test system: A549; assay: tumor cell growth, A549; conditions: Homo sapiens, A549, read-out: IC50 (uM), A549 (NSCLC)
[4] = test system: U251; assay: tumor cell growth, U251; conditions: Homo sapiens, U-251, read-out: IC50 (uM), U251 (CNS)
[5] = test system: A172; assay: tumor cell growth, A172; conditions: Homo sapiens, A 172, read-out: IC50 (uM), A172 (CNS)
[6] = test system: U118; assay: tumor cell growth, U118; conditions: read-out: IC50 (uM), U118 (CNS)
[7] = test system: HEPG2; assay: tumor cell growth, HEPG2; conditions: Homo sapiens, HepG2, read-out: IC50 (uM), HEPG2 (Liver C)
[8] = test system: GL261; assay: tumor cell growth, GL261; conditions: Mus musculus, GL261, read-out: IC50 (uM), GL261 (CNS)
[9] = test system: LN-18; assay: tumor cell growth, LN-18; conditions: Homo sapiens, LN-18, read-out: IC50 (uM), LN-18 (CNS)
[10] = test system: PANC-1; assay: tumor cell growth, PANC-1; conditions: Homo sapiens, PANC-1, read-out: IC50 (uM), PANC-1 (Pancreatic C)
[11] = test system: Du-145; assay: tumor cell growth, Du-145; conditions: Homo sapiens, DU-145, read-out: IC50 (uM), Du-145 (Prostate C)
[12] = test system: MDAMB231; assay: tumor cell growth, MDAMB231; conditions: Homo sapiens, MDA-MB-231, read-out: IC50 (uM), MDAMB231 (Breast C)
[13] = test system: PC3; assay: tumor cell growth (CTG), PC3; conditions: Homo sapiens
[14] = test system: HT29; assay: tumor cell growth (CTG), HT29; conditions: Homo sapiens
[15] = test system: HT29; assay: Thymidine (Thy) 96 well, HT29; conditions: Homo sapiens, read-out: IC50 (uM), HT29 (Colon Cancer)
[16] = test system: HEP3B; assay: tumor cell growth (CTG), HEP3B; conditions: Homo sapiens, Hep3B
[17] = test system: HCT116; assay: tumor cell growth (CTG), HCT116; conditions: Homo sapiens
[18] = test system: HCT116; assay: Thymidine (Thy) 96 well, HCT116; conditions: Homo sapiens, read-out: IC50 (uM), HCT116 (Colon Cancer)
[19] = test system: NCIH460; assay: Thymidine (Thy) 96 well, NCIH460; conditions: Homo sapiens, read-out: IC50 (uM), NCIH460 (NSCLC)
[20] = test system: H460; assay: tumor cell growth (CTG), H460 / NCIH460; conditions: Homo sapiens
[21] = test system: LN-229; assay: tumor cell growth (CTG), LN-229 / LN229; conditions: Homo sapiens
[22] = test system: PC3; assay: [3H]-Thymidine incorporation in 96-well plates (Thy), PC3; conditions: Homo sapiens, read-out: IC50 (uM), PC3 (Prostrate Cancer)
[23] = test system: HEP3B; assay: [3H]-Thymidine incorporation in 96-well plates (Thy), HEP3B; conditions: Homo sapiens, Hep3B, read-out: IC50 (uM), HEP3B (Liver Cancer)
[24] = test system: LN229; assay: [3H]-Thymidine incorporation in 96-well plates (Thy), LN229; conditions: Homo sapiens, read-out: IC50 (uM), LN229 (CNS Cancer)

## COc1cccc2c1C(=O)c1c(O)c3c(c(O)c1C2=O)C[C@@](O)(C(=O)CO)C[C@@H]3O[C@H]1C[C@H](N)[C@H](O)[C@H](C)O1 [Doxorubicin, reference compound]
[1]
  IC50: 0.21 µM
[2]
  IC50: 0.3 µM
[3]
  IC50: 0.11 µM
[4]
  IC50: 0.17 µM
[5]
  IC50: 0.46 µM
[6]
  IC50: 0.81 µM
[7]
  IC50: 0.28 µM
[8]
  IC50: 0.17 µM
[9]
  IC50: 0.53 µM
[10]
  IC50: 2.97 µM
[11]
  IC50: 0.38 µM
[12]
  IC50: 0.68 µM
[13]; PC-3, 24 h, read-out: IC50 (uM), PC3 (Prostrate Cancer)
  IC50: 3.02 µM
[13]; PC-3, 48 h, read-out: IC50 (uM), PC3 (Prostrate Cancer)
  IC50: 0.93 µM
[13]; PC-3, 72 h, read-out: IC50 (uM), PC3 (Prostrate Cancer)
  IC50: 0.91 µM
[13]; PC-3, read-out: IC50 (uM), PC3 (Prostate C)
  IC50: 0.91 µM
[14]; HT-29, 48 h, read-out: IC50 (uM), HT29 (Colon Cancer)
  IC50: 0.52 µM
[14]; HT-29, 72 h, read-out: IC50 (uM), HT29 (Colon Cancer)
  IC50: 0.26 µM
[14]; HT-29, read-out: IC50 (uM), HT29 (Colon C)
  IC50: 0.26 µM
[15]; HT-29, 24 h
  IC50: 0.11 µM
[15]; HT-29, 48 h
  IC50: 0.12 µM
[16]; 48 h, read-out: IC50 (uM), HEP3B (Liver Cancer), 96 well CTG 2 days treatment
  IC50: 0.52 µM
[16]; 72 h, read-out: IC50 (uM), HEP3B (Liver Cancer), 384well CTG 3 days treatment −1
  IC50: 0.43 µM
[16]; 72 h, read-out: IC50 (uM), HEP3B (Liver Cancer), 384well CTG 3 days treatment −2
  IC50: 0.35 µM
[16]; read-out: IC50 (uM), HEP3B (Liver C), Table 6
  IC50: 0.43 µM
[17]; HCT-116, 24 h, read-out: IC50 (uM), HCT116 (Colon Cancer), 96 well CTG 1 day treatment
  IC50: 0.21 µM
[17]; HCT-116, 48 h, read-out: IC50 (uM), HCT116 (Colon Cancer), 96 well CTG 2 days treatment
  IC50: 0.23 µM
[17]; HCT-116, 72 h, read-out: IC50 (uM), HCT116 (Colon Cancer), 384well CTG 3 days treatment −1
  IC50: 0.06 µM
[17]; HCT-116, 72 h, read-out: IC50 (uM), HCT116 (Colon Cancer), 384well CTG 3 days treatment −2
  IC50: 0.21 µM
[17]; HCT-116, read-out: IC50 (uM), HCT116 (Colon C), Table 6
  IC50: 0.06 µM
[18]; HCT-116, 24 h
  IC50: 0.12 µM
[18]; HCT-116, 48 h
  IC50: 0.14 µM
[19]; NCI-H460, 24 h
  IC50: 0.09 µM
[19]; NCI-H460, 48 h
  IC50: 0.03 µM
[20]; NCI-H460, 24 h, read-out: IC50 (uM), NCIH460 (NSCLC), 96 well CTG 1 day treatment
  IC50: 0.31 µM
[20]; NCI-H460, 48 h, read-out: IC50 (uM), NCIH460 (NSCLC), 96 well CTG 2 days treatment
  IC50: 0.12 µM
[20]; NCI-H460, 72 h, read-out: IC50 (uM), NCIH460 (NSCLC), 384well CTG 3 days treatment −1
  IC50: 0.02 µM
[20]; NCI-H460, 72 h, read-out: IC50 (uM), NCIH460 (NSCLC), 384well CTG 3 days treatment −2
  IC50: 0.11 µM
[20]; NCI-H460, read-out: IC50 (uM), H460 (NSCLC), Table 6
  IC50: 0.02 µM
[21]; LN-229, 48 h, read-out: IC50 (uM), LN229 (CNS Cancer)
  IC50: 1.7 µM
[21]; LN-229, 72 h, read-out: IC50 (uM), LN229 (CNS Cancer)
  IC50: 0.61 µM
[21]; LN-229, read-out: IC50 (uM), LN-229 (CNS)
  IC50: 0.61 µM
[22]; PC-3, 24 h
  IC50: 0.04 µM
[22]; PC-3, 48 h
  IC50: 0.28 µM
[23]; 24 h
  IC50: 0.04 µM
[23]; 48 h
  IC50: 0.02 µM
[24]; LN-229, 24 h
  IC50: 0.1 µM
[24]; LN-229, 48 h
  IC50: 0.07 µM
